Experimental data taken from patent US8835462B2, “Macrocyclic picolinamides as fungicides” (Dow AgroSciences LLC, priority 2012, dated 2014).
Like-named read-outs stand apart in the source and are kept apart here.

Columns and labels:
Format in all cases: in vivo
[1] = system: Mycosphaerella graminicola; Anamorph: Septoria tritici; assay: Leaf blotch of wheat (SEPTTR) fungicidal activity on wheat seedlings; details: Zymoseptoria tritici
Procedure, shortened: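 Percent control derives from disease severity on treated versus untreated first leaves, rated 0–100% when symptoms were fully expressed on untreated plants. Yuma seedlings were inoculated with S. tritici spores either before or after spraying to run-off. The spray was acetone solution diluted 1:9 in water with 110 ppm Triton X-100. Infection took place in 100% RH dew chambers, then a 20 °C greenhouse.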

[2] = system: Cercospora beticola; assay: Leaf spot of sugar beets (CERCBE) fungicidal activity; details: 24 h, 1 Day Protectant, sugar beet, read-out: Disease Control CERCBE 1DP
Procedure: Technical grades of materials were dissolved in acetone, which were then mixed with nine volumes of water containing 110 ppm Triton X-100. The fungicide solutions were applied onto wheat seedlings using an automated booth sprayer to run-off. All sprayed plants were allowed to air dry prior to further handling. Wheat plants (variety Yuma) were grown from seed in a greenhouse in 50% mineral soil/50% soil-less Metro mix until the first leaf was fully emerged, with 7-10 seedlings per pot. These plants were inoculated with an aqueous spore suspension of Septoria tritici either prior to or after fungicide treatments. After inoculation the plants were kept in 100% relative humidity (one day in a dark dew chamber followed by two to three days in a lighted dew chamber at 20° C.) to permit spores to germinate and infect the leaf. The plants were then transferred to a greenhouse set at 20° C. for disease to develop. When disease symptoms were fully expressed on the 1st leaves of untreated plants, infection levels were assessed on a scale of 0 to 100 percent disease severity. Percent disease control was calculated using the ratio of disease severity on treated plants relative to untreated plants. Evaluation of Fungicidal Activity: Leaf Spot of Sugar Beets (Cercospora Beticola; Bayer Code CERCBE) Sugar beet plants (variety HH88) were grown in soil-less Metro mix and trimmed regularly to maintain an uniform plant size prior to test. Plants were inoculated with a spore suspension 24 hr after fungicide treatments. Inoculated plants were kept in a dew chamber at 22° C. for 48 hr then incubated in a greenhouse set at 24° C. under a clear plastic hood with bottom ventilation until disease symptoms were fully expressed. Fungicide formulation, application and disease assessment on the sprayed leaves followed the procedures as described in the Example A.

[3] = system: Magnaporthe grisea; Anamorph: Pyricularia oryzae; assay: whole plant or invertebrate; details: 24 h, read-out: Disease Control PYRIOR 1DP
[4] = system: Alternaria solani; assay: Tomato early blight (ALTESO) fungicidal activity; details: 24 h, 1 Day Protectant, read-out: Disease Control ALTESO 1DP
Procedure: Technical grades of materials were dissolved in acetone, which were then mixed with nine volumes of water containing 110 ppm Triton X-100. The fungicide solutions were applied onto wheat seedlings using an automated booth sprayer to run-off. All sprayed plants were allowed to air dry prior to further handling. Wheat plants (variety Yuma) were grown from seed in a greenhouse in 50% mineral soil/50% soil-less Metro mix until the first leaf was fully emerged, with 7-10 seedlings per pot. These plants were inoculated with an aqueous spore suspension of Septoria tritici either prior to or after fungicide treatments. After inoculation the plants were kept in 100% relative humidity (one day in a dark dew chamber followed by two to three days in a lighted dew chamber at 20° C.) to permit spores to germinate and infect the leaf. The plants were then transferred to a greenhouse set at 20° C. for disease to develop. When disease symptoms were fully expressed on the 1st leaves of untreated plants, infection levels were assessed on a scale of 0 to 100 percent disease severity. Percent disease control was calculated using the ratio of disease severity on treated plants relative to untreated plants. Evaluation of Fungicidal Activity: Tomato Early Blight (Alternaria Solani; Bayer Code […]) Tomato plants (variety Outdoor girl) were propagated in soil-less Metro mix, with each pot having one plant, and used when 12 to 14 days old. Test plants were inoculated with an aqueous spore suspension of Alternaria solani 24 hr after fungicide treatments. After inoculation the plants were kept in 100% relative humidity (one day in a dark dew chamber followed by two to three days in a lighted dew chamber at 20° C.) to permit spores to germinate and infect the leaf. The plants were then transferred to a growth room at 22° C. for disease to develop. Fungicide formulation, application and disease assessment on the sprayed leaves followed the procedures as described in the Example A.

[5] = system: Glomerella lagenarium; Anamorph: Colletotricum lagenarium; assay: Cucumber anthracnose (COLLLA) fungicidal activity; details: Colletotrichum orbiculare, 24 h, 1 Day Protectant, read-out: Disease Control COLLLA 1DP
Procedure: Technical grades of materials were dissolved in acetone, which were then mixed with nine volumes of water containing 110 ppm Triton X-100. The fungicide solutions were applied onto wheat seedlings using an automated booth sprayer to run-off. All sprayed plants were allowed to air dry prior to further handling. Wheat plants (variety Yuma) were grown from seed in a greenhouse in 50% mineral soil/50% soil-less Metro mix until the first leaf was fully emerged, with 7-10 seedlings per pot. These plants were inoculated with an aqueous spore suspension of Septoria tritici either prior to or after fungicide treatments. After inoculation the plants were kept in 100% relative humidity (one day in a dark dew chamber followed by two to three days in a lighted dew chamber at 20° C.) to permit spores to germinate and infect the leaf. The plants were then transferred to a greenhouse set at 20° C. for disease to develop. When disease symptoms were fully expressed on the 1st leaves of untreated plants, infection levels were assessed on a scale of 0 to 100 percent disease severity. Percent disease control was calculated using the ratio of disease severity on treated plants relative to untreated plants. Evaluation of Fungicidal Activity: Cucumber Anthracnose (Glomerella Lagenarium; Anamorph: Colletotricum Lagenarium; Bayer Code COLLLA) Cucumber seedlings (variety Bush Pickle) were propagated in soil-less Metro mix, with each pot having one plant, and used in the test when 12 to 14 days old. Test plants were inoculated with an aqueous spore suspension of Colletotricum lagenarium 24 hr after fungicide treatments. After inoculation the plants were kept in a dew room at 22° C. with 100% relative humidity for 48 hr to permit spores to germinate and infect the leaf. The plants were then transferred to a growth room set at 22° C. for disease to develop. Fungicide formulation, application and disease assessment on the sprayed leaves followed the procedures as described in the Example A.

[6] = 24 h, 1 Day Protectant, read-out: Disease Control SEPTTR 1 DP
[7] = 72 h, 3 Day Curative, read-out: Disease Control SEPTTR 3 DC

COCCCO[C@@H]1[C@@H](Cc2ccccc2)COC[C@H](NC(=O)c2nccc(OC)c2OCOC(C)=O)C(=O)O[C@H]1C [Compound 16]
pest or weed control at 100 ppm [1, 6]: 80 to 100%
pest or weed control at 100 ppm [1, 7]: 80 to 100%
pest or weed control at 100 ppm [2]: 80 to 100%
pest or weed control at 100 ppm [3]: 80 to 100%
pest or weed control at 100 ppm [4]: 80 to 100%
pest or weed control at 100 ppm [5]: 80 to 100%

COc1ccnc(C(=O)N[C@H]2COC[C@H](Cc3ccccc3)[C@@H](OCCCc3ccccc3)[C@H](C)OC2=O)c1OCOC(C)=O [Compound 34]
pest or weed control at 100 ppm [1, 6]: 80 to 100%
pest or weed control at 100 ppm [1, 7]: 80 to 100%
pest or weed control at 100 ppm [2]: 80 to 100%
pest or weed control at 100 ppm [3]: 80 to 100%
pest or weed control at 100 ppm [4]: 80 to 100%
pest or weed control at 100 ppm [5]: 80 to 100%

COc1ccnc(C(=O)N[C@H]2COC[C@H](Cc3ccccc3)[C@@H](OC(=O)C3CC3)[C@H](C)OC2=O)c1OCOC(C)=O [Compound 38]
pest or weed control at 100 ppm [1, 6]: 80 to 100%
pest or weed control at 100 ppm [1, 7]: 80 to 100%
pest or weed control at 100 ppm [2]: 80 to 100%
pest or weed control at 100 ppm [3]: 80 to 100%
pest or weed control at 100 ppm [4]: 80 to 100%
pest or weed control at 100 ppm [5]: 80 to 100%

CCCO[C@@H]1[C@@H](Cc2ccccc2)COC[C@H](NC(=O)c2nccc(OC)c2OCOC(C)=O)C(=O)O[C@H]1C [Compound 22]
pest or weed control at 100 ppm [1, 6]: 80 to 100%
pest or weed control at 100 ppm [1, 7]: 80 to 100%
pest or weed control at 100 ppm [2]: 80 to 100%
pest or weed control at 100 ppm [3]: 80 to 100%
pest or weed control at 100 ppm [4]: 80 to 100%
pest or weed control at 100 ppm [5]: 80 to 100%

COc1ccnc(C(=O)N[C@H]2COC[C@H](Cc3ccccc3)[C@@H](OCC(C)C)[C@H](C)OC2=O)c1OCOC(C)=O [Compound 8, (2-((3S,7S,8R,9S)-7-benzyl-8-isobutoxy-9-methyl-2-oxo-1,5-dioxonan-3-ylcarbamoyl)-4-methoxypyridin-3-yloxy)methyl acetate]
pest or weed control at 100 ppm [1, 6]: 80 to 100%
pest or weed control at 100 ppm [1, 7]: 80 to 100%
pest or weed control at 100 ppm [2]: 80 to 100%
pest or weed control at 100 ppm [3]: 80 to 100%
pest or weed control at 100 ppm [4]: 80 to 100%
pest or weed control at 100 ppm [5]: 80 to 100%

COc1ccnc(C(=O)N[C@H]2COC[C@H](Cc3ccccc3)[C@@H](OC(=O)c3ccccc3)[C@H](C)OC2=O)c1OCOC(C)=O [Compound 37]
pest or weed control at 100 ppm [1, 6]: 80 to 100%
pest or weed control at 100 ppm [1, 7]: 80 to 100%
pest or weed control at 100 ppm [2]: 80 to 100%
pest or weed control at 100 ppm [3]: 80 to 100%
pest or weed control at 100 ppm [4]: 80 to 100%
pest or weed control at 100 ppm [5]: 80 to 100%

COc1ccnc(C(=O)N[C@H]2COC[C@H](Cc3ccccc3)[C@@H](OCCC(=O)N(C)C)[C@H](C)OC2=O)c1OCOC(C)=O [Compound 15]
pest or weed control at 100 ppm [1, 6]: 0 to 80%
pest or weed control at 100 ppm [1, 7]: 0 to 80%
pest or weed control at 100 ppm [2]: 0 to 80%
pest or weed control at 100 ppm [3]: 0 to 80%
pest or weed control at 100 ppm [4]: 0 to 80%
pest or weed control at 100 ppm [5]: 0 to 80%
